Positions of bridges follow the written chain, without caps; N, C: chain ends. Non-standard residues stand in square brackets, D forms with d. Residues, ends and D or L forms follow the SMILES beside them. Met(O) = CS(=O)CC[C@H](N)C(=O)O
How the values were obtained:
[1] = stability towards mild oxidation with performic acid; type: physicochemical
Method: b. 80 g of Bio-gel P6 are allowed to swell overnight in 0.1N-formic acid, then filled into a chromatography tube (internal diameter 2.5 cm) up to a height of 94 cm (when it has settled; total volume of the gel bed, 460 ml). 600 mg of the crude product obtained as described under (a) above are dissolved in 20 ml of 0.1N-formic acid, the solution poured on to the gel column, and eluted with 0.1N-formic acid. The eluate is passed through a recording UV percolation photometer (254 nm) and collected in fractions of 15 ml each. The eluates are analyzed by thin-layer chromatography over Sephadex G 25 (superfine) (registered Trade Mark) in 0.1N-formic acid (with chlorine/tolidine reagent), and tested biologically. The maximum activity is found in an eluate volume corresponding to 0.8 column volume. The fractions are lyophilized individually and yield 70% of the total activity; the best fractions have an activity of 40 MRC units/mg. The molecular weight of these active substances is below 5000. The product can be further purified by counter-current distribution and/or gel chromatography. For this purpose, batches of 2-5 g of the enriched material are subjected to counter-current distribution over 250-300 stages in the system n-butanol:methanol:0.1N-acetic acid (4:1:5). […]

[2] = solubility; type: physicochemical; conditions: for solubility of the acetate: acetate of the peptide; for solubility of the trichloracetate: trichloracetate of the peptide

Row | stability towards mild oxidation with performic acid [1] | solubility of the acetate [2] | solubility of the trichloracetate [2] | Compound
1 | stable | readily soluble | rather sparingly soluble | CC(C)C[C@H](NC(=O)[C@H](CC(N)=O)NC(=O)[C@H](CCCNC(=N)N)NC(=O)[C@H](Cc1c[nH]c2ccccc12)NC(=O)[C@H](Cc1ccc(O)cc1)NC(=O)[C@H](C)NC(=O)[C@H](CO)NC(=O)[C@H](CC(C)C)NC(=O)[C@@H](NC(=O)[C@@H]1CSSC[C@H](N)C(=O)N[C@@H](CO)C(=O)N[C@@H](CC(N)=O)C(=O)N[C@@H](CC(C)C)C(=O)N[C@@H](CO)C(=O)N[C@@H]([C@@H](C)O)C(=O)N1)C(C)C)C(=O)N[C@@H](CC(N)=O)C(=O)N[C@@H](CC(N)=O)C(=O)N[C@@H](Cc1ccccc1)C(=O)N[C@@H](Cc1c[nH]cn1)C(=O)N[C@@H](CCCNC(=N)N)C(=O)N[C@@H](Cc1ccccc1)C(=O)N[C@@H](CO)C(=O)NCC(=O)N[C@@H](CC[S+](C)[O-])C(=O)NCC(=O)N[C@@H](Cc1ccccc1)C(=O)NCC(=O)N1CCC[C@H]1C(=O)N[C@@H](CCC(=O)O)C(=O)N[C@H](C(=O)N1CCC[C@H]1C(N)=O)[C@@H](C)O (stereo partly drawn) [β-thyrocalcitonin] (H-CSNLSTCVLSAYWRNLNNFHRFSG[Met(O)]GFGPETP-NH2; disulfide 1-7)
2 | becomes a more polar product | readily soluble | rather sparingly soluble | CSCC[C@H](NC(=O)CNC(=O)[C@H](CO)NC(=O)[C@H](Cc1ccccc1)NC(=O)[C@H](CCCNC(=N)N)NC(=O)[C@H](Cc1c[nH]cn1)NC(=O)[C@H](Cc1ccccc1)NC(=O)[C@H](CC(N)=O)NC(=O)[C@H](CC(N)=O)NC(=O)[C@H](CC(C)C)NC(=O)[C@H](CC(N)=O)NC(=O)[C@H](CCCNC(=N)N)NC(=O)[C@H](Cc1c[nH]c2ccccc12)NC(=O)[C@H](Cc1ccc(O)cc1)NC(=O)[C@H](C)NC(=O)[C@H](CO)NC(=O)[C@H](CC(C)C)NC(=O)[C@@H](NC(=O)[C@@H]1CSSC[C@H](N)C(=O)N[C@@H](CO)C(=O)N[C@@H](CC(N)=O)C(=O)N[C@@H](CC(C)C)C(=O)N[C@@H](CO)C(=O)N[C@@H]([C@@H](C)O)C(=O)N1)C(C)C)C(=O)NCC(=O)N[C@@H](Cc1ccccc1)C(=O)NCC(=O)N1CCC[C@H]1C(=O)N[C@@H](CCC(=O)O)C(=O)N[C@H](C(=O)N1CCC[C@H]1C(N)=O)[C@@H](C)O [α-thyrocalcitonin] (H-CSNLSTCVLSAYWRNLNNFHRFSGMGFGPETP-NH2; disulfide 1-7)
